Test results reported in ChEMBL document CHEMBL1148642, “(2S,3S)-3-Amino-4-(3,3-difluoropyrrolidin-1-yl)-N,N-dimethyl-4-oxo-2-(4-[1,2,4]triazolo[1,5-a]-pyridin-6-ylphenyl)butanamide: a selective alpha-amino amide dipeptidyl peptidase IV inhibitor for the treatment of type 2 diabetes” (J Med Chem, 2006).

What was measured:
[1] = molecular target: T1, Prolyl endopeptidase FAP (Homo sapiens, UniProt Q12884); assay: Inhibition of FAP
T1 sequence (Q12884 whole entry): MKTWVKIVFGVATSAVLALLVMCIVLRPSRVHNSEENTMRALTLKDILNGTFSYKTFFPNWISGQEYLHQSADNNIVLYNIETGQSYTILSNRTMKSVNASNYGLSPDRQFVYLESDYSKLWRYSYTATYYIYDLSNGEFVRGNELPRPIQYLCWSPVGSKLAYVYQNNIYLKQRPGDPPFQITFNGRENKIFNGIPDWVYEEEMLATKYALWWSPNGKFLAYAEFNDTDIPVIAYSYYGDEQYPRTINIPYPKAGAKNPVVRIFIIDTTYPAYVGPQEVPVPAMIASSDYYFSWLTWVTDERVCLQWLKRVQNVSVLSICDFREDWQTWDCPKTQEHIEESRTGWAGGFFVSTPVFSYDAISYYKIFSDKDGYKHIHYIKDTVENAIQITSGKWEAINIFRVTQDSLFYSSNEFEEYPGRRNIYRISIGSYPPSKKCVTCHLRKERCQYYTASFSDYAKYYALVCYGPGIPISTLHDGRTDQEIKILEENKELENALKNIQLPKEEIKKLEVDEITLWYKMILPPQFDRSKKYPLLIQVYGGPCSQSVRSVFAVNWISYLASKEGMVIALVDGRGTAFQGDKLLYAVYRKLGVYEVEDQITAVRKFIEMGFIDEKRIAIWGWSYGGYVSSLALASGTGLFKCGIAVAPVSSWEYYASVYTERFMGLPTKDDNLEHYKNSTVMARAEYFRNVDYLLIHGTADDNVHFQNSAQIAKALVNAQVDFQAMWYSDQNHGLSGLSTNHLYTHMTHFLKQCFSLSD

[2] = Half life in rat at 1 mg/kg, iv or 2 mg/kg, po; type: ADME, organism-based; conditions: in vivo
[3] = Bioavailability in rat at 1 mg/kg, iv and 2 mg/kg, po; type: ADME, organism-based; conditions: in vivo
[4] = molecular target: T2, Xaa-Pro dipeptidase (Homo sapiens, UniProt P12955); assay: Inhibition of prolidase
T2 sequence (P12955 whole entry): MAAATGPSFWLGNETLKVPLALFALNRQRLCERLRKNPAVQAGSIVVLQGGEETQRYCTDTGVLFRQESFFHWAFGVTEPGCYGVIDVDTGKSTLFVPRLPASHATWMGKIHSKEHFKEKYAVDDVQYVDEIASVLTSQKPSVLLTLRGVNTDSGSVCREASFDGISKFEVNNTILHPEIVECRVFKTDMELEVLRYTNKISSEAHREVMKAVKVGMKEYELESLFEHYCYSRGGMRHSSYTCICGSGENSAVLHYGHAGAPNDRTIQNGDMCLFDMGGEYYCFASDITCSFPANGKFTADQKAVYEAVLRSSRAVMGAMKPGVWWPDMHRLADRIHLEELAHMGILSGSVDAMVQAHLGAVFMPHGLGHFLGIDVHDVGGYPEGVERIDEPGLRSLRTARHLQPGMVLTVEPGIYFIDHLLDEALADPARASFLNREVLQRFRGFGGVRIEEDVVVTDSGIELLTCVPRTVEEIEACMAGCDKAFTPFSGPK

[5] = Cmax in rat at 2 mg/kg, po; type: ADME, organism-based; parameters: dose 2 mg/kg, route oral; conditions: in vivo
[6] = test system: Rattus norvegicus; assay: AUC in rat at 2 mg/kg, po normalized to 1 mg/kg; type: ADME, organism-based, Plasma; conditions: in vivo
[7] = molecular target: T3, Dipeptidyl peptidase 4 (Homo sapiens, UniProt P27487); assay: Inhibition of DPP4 in presence of 50% human serum
T3 sequence (P27487 whole entry): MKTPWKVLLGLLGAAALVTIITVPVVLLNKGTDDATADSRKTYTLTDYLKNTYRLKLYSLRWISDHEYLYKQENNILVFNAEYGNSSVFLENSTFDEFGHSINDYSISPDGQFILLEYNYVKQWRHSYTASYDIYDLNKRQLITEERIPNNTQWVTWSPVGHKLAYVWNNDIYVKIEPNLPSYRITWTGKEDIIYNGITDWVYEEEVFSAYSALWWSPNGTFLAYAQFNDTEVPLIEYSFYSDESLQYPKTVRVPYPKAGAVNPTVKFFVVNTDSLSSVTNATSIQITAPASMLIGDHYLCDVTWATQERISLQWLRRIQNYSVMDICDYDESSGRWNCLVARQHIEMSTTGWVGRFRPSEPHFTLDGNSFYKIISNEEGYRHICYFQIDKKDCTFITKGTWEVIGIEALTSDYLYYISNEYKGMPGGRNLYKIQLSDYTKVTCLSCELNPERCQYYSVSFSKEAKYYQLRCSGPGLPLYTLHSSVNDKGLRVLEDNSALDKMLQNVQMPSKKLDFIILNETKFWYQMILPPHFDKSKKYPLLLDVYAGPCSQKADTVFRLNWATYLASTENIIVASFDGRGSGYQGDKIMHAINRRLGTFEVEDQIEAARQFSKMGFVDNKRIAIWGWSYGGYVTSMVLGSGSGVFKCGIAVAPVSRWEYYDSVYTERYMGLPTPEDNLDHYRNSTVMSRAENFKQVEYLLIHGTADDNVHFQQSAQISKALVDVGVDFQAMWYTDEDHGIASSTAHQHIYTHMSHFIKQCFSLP

[8] = molecular target: Xaa-Pro aminopeptidase 1 (Homo sapiens, UniProt Q9NQW7); assay: Inhibition of aminopeptidase P
Sequence of Xaa-Pro aminopeptidase 1 (Q9NQW7 whole entry): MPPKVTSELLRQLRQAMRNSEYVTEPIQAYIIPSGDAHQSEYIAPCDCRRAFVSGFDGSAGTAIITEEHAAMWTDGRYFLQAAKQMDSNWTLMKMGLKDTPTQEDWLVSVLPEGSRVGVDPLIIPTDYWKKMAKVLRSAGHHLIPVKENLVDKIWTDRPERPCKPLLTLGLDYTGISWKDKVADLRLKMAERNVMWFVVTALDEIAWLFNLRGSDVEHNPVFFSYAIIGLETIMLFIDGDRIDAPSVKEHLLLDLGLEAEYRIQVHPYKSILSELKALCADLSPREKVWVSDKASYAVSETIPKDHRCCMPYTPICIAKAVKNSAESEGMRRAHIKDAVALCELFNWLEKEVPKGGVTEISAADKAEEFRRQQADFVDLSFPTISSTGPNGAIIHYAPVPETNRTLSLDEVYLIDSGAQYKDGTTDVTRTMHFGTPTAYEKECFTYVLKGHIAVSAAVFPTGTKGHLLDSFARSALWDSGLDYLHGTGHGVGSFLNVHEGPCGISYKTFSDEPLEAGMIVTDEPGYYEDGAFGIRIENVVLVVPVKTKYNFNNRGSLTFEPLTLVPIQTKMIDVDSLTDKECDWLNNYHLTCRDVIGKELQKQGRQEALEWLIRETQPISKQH

[9] = molecular target: T3, Dipeptidyl peptidase 4; assay: Inhibition of DPP4
[10] = molecular target: Dipeptidyl peptidase 9 (Homo sapiens, UniProt Q86TI2); assay: Inhibition of DPP9
Sequence of Dipeptidyl peptidase 9 (Q86TI2 whole entry): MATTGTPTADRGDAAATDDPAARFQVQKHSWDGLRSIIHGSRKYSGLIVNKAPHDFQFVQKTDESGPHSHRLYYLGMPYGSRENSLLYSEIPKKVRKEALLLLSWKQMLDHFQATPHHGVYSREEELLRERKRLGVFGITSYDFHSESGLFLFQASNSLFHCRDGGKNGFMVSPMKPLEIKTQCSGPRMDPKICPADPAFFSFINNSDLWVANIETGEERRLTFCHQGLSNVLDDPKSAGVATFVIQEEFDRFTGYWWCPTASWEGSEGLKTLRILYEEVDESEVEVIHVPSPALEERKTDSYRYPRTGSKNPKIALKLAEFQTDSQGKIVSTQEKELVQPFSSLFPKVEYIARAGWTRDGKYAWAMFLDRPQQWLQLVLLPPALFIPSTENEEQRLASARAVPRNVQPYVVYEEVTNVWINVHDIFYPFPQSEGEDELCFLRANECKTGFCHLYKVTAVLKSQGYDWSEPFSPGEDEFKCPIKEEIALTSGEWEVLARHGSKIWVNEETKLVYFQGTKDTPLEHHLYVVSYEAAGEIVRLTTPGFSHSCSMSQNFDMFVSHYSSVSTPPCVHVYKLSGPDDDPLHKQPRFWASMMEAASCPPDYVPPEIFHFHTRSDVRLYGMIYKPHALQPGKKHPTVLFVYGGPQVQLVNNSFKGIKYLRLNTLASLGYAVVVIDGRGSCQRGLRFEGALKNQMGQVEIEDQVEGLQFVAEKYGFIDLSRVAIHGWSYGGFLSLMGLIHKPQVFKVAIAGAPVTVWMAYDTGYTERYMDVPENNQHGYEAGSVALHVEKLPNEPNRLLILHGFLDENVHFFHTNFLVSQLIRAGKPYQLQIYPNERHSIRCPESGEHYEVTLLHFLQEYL

[11] = molecular target: Dipeptidyl peptidase 8 (Homo sapiens, UniProt Q6V1X1); assay: Inhibition of DPP8
Sequence of Dipeptidyl peptidase 8 (Q6V1X1 whole entry): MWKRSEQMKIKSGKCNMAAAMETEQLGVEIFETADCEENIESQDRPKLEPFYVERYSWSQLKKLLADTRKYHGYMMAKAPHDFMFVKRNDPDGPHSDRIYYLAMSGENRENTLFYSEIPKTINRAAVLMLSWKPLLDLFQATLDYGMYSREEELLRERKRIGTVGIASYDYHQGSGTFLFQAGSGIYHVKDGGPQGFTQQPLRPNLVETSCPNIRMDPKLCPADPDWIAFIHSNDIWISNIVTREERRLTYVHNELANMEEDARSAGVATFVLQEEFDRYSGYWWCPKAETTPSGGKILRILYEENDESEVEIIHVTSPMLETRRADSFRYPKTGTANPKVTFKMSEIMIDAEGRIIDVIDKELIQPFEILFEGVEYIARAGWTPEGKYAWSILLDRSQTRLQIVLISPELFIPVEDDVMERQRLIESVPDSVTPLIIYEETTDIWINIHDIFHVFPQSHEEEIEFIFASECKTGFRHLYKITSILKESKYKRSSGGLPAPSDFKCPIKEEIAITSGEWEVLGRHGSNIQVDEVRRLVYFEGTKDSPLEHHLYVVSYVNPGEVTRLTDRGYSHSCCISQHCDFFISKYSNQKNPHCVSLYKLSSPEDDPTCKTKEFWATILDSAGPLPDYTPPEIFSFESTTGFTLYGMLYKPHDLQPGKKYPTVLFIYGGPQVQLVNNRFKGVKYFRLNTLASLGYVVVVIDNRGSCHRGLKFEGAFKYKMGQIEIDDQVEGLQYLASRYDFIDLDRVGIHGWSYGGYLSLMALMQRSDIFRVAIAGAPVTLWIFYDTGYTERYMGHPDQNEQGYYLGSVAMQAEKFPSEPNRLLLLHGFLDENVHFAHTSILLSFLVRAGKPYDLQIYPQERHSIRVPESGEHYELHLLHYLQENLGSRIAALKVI

[12] = molecular target: Dipeptidyl peptidase 2 (Homo sapiens, UniProt Q9UHL4); assay: Inhibition of QPP
[13] = Plasma clearance in rat at 1 mg/kg, iv or 2 mg/kg, po; type: ADME, organism-based
[14] = Bioavailability in dog at 1 mg/kg, iv and 2 mg/kg, po; type: ADME, organism-based, Canis lupus familiaris; conditions: in vivo
[15] = Half life in dog at 1 mg/kg, iv or 2 mg/kg, po; type: ADME, organism-based, Canis lupus familiaris; conditions: in vivo
[16] = test system: Canis familiaris; assay: AUC in dog at 2 mg/kg, po normalized to 1 mg/kg; type: ADME, organism-based, Canis lupus familiaris, Plasma; conditions: in vivo
[17] = Cmax in dog at 2 mg/kg, po; type: ADME, organism-based, Canis lupus familiaris; parameters: dose 2 mg/kg, route oral; conditions: in vivo
[18] = Plasma clearance in dog at 1 mg/kg, iv or 2 mg/kg, po; type: ADME, organism-based, Canis lupus familiaris

Row | IC50 [1] | half-life [2] | bioavailability [3] | IC50 [4] | Cmax [5] | AUC [6] | IC50 [7] | IC50 [8] | IC50 [9] | IC50 [10] | IC50 [11] | IC50 [12] | clearance [13] | bioavailability [14] | half-life [15] | AUC [16] | Cmax [17] | clearance [18] | SMILES
1 | > 40 µM | 66 min | 0.76% | > 40 µM | 8 nM | 0.009 µM·h | 16 nM | > 40 µM | 4.1 nM | > 100 µM | > 100 µM | > 100 µM | 34 mL/min/kg |  |  |  |  |  | CN(C)C(=O)[C@@H](c1ccc(-c2ccc3nncn3c2)cc1)[C@H](N)C(=O)N1CC[C@H](F)C1.O=C(O)C(F)(F)F
2 | > 40 µM |  |  | > 40 µM |  |  | 61 nM | > 40 µM | 8.6 nM | > 100 µM | > 100 µM | > 100 µM |  |  |  |  |  |  | Cc1c(-c2ccc([C@H](C(=O)N(C)C)[C@H](N)C(=O)N3CC[C@H](F)C3)cc2)ccc2ncnn12
3 | > 40 µM | 72 min | 2% | > 40 µM | 21 nM | 0.048 µM·h | 79 nM | > 40 µM | 8 nM | > 100 µM | > 100 µM | > 100 µM | 15 mL/min/kg |  |  |  |  |  | CN(C)C(=O)[C@@H](c1ccc(-c2ccc(=O)n(C)c2)cc1)[C@H](N)C(=O)N1CC[C@H](F)C1.O=C(O)C(F)(F)F
4 | > 40 µM |  |  | > 40 µM |  |  | 223 nM | > 40 µM | 22 nM | > 100 µM | > 100 µM | > 100 µM |  |  |  |  |  |  | Cc1nc2ccc(-c3ccc([C@H](C(=O)N(C)C)[C@H](N)C(=O)N4CC[C@H](F)C4)cc3)cn2n1
5 | > 40 µM | 258 min | 46% | > 40 µM | 3900 nM | 5.6 µM·h | 53 nM | > 40 µM | 8 nM | > 100 µM | > 100 µM | 63 µM | 3.3 mL/min/kg |  |  |  |  |  | CN(C)C(=O)[C@@H](c1ccc(-c2ccn3nccc3n2)cc1)[C@H](N)C(=O)N1CC[C@H](F)C1.O=C(O)C(F)(F)F
6 | > 40 µM |  |  | > 40 µM |  |  | 640 nM | > 40 µM | 150 nM | > 100 µM | > 100 µM | > 100 µM |  |  |  |  |  |  | Cc1cc(-c2ccc([C@H](C(=O)N(C)C)[C@H](N)C(=O)N3CC[C@H](F)C3)cc2)cn2ncnc12
7 | > 40 µM | 126 min | 37% | > 40 µM | 2400 nM | 2.2 µM·h | 41 nM | > 40 µM | 2.7 nM | > 100 µM | > 100 µM | > 100 µM | 7.3 mL/min/kg | 100% | 120 min | 6.9 µM·h | 4 µM | 6.1 mL/min/kg | CN(C)C(=O)[C@@H](c1ccc(-c2ccc3ncnn3c2)cc1)[C@H](N)C(=O)N1CC(F)C1.O=C(O)C(F)(F)F
8 | > 40 µM | 102 min | 21% | > 40 µM | 600 nM | 0.83 µM·h | 35 nM | > 40 µM | 5.3 nM | > 100 µM | > 100 µM | 14 µM | 10 mL/min/kg |  |  |  |  |  | CN(C)C(=O)[C@@H](c1ccc(-c2ccn3ncnc3c2)cc1)[C@H](N)C(=O)N1CC[C@H](F)C1.O=C(O)C(F)(F)F
9 | > 40 µM | 120 min |  | > 40 µM | 2300 nM | 2.4 µM·h |  | > 40 µM |  | > 100 µM | > 100 µM | > 100 µM | 7 mL/min/kg |  | 144 min | 12 µM·h | 6.6 µM | 3.1 mL/min/kg | CN(C)C(=O)[C@@H](c1ccc(-c2ccc3ncnn3c2)cc1)[C@H](N)C(=O)N1CC[C@H](F)C1.O=C(O)C(F)(F)F
10 | > 40 µM | 96 min | 46% | > 40 µM | 2100 nM | 2.9 µM·h | 63 nM | > 40 µM | 5.2 nM | 14 µM | > 100 µM | > 100 µM | 7.7 mL/min/kg | 98% | 66 min | 6.8 µM·h | 5.9 µM | 5.9 mL/min/kg | CN(C)C(=O)[C@@H](c1ccc(-c2ccc3ncnn3c2)cc1)[C@H](N)C(=O)N1CCCC1.O=C(O)C(F)(F)F
11 | > 40 µM |  |  | > 40 µM |  |  | 133 nM | > 40 µM | 13 nM | > 100 µM | > 100 µM | > 100 µM |  |  |  |  |  |  | CN(C)C(=O)[C@@H](c1ccc(-c2ccc3nccn3c2)cc1)[C@H](N)C(=O)N1CC[C@H](F)C1
12 | > 40 µM |  |  | > 40 µM |  |  | 177 nM | > 40 µM | 13 nM | > 100 µM | > 100 µM | > 100 µM |  |  |  |  |  |  | CN(C)C(=O)[C@@H](c1ccc(-c2ccc3nccn3n2)cc1)[C@H](N)C(=O)N1CC[C@H](F)C1
